Laboratory results: ChEMBL document CHEMBL1201862, “PubChem BioAssay data set” (2004)
Activity calls are given as the source filed them.

Legend:
[1] = target: T1, Sentrin-specific protease 6 (Homo sapiens, UniProt Q9GZR1); type: functional;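 also: Luminescence-based dose-response confirmatory assay of SENP6 inhibition, following up an ultra-high-throughput screen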
T1 sequence (Q9GZR1 whole entry): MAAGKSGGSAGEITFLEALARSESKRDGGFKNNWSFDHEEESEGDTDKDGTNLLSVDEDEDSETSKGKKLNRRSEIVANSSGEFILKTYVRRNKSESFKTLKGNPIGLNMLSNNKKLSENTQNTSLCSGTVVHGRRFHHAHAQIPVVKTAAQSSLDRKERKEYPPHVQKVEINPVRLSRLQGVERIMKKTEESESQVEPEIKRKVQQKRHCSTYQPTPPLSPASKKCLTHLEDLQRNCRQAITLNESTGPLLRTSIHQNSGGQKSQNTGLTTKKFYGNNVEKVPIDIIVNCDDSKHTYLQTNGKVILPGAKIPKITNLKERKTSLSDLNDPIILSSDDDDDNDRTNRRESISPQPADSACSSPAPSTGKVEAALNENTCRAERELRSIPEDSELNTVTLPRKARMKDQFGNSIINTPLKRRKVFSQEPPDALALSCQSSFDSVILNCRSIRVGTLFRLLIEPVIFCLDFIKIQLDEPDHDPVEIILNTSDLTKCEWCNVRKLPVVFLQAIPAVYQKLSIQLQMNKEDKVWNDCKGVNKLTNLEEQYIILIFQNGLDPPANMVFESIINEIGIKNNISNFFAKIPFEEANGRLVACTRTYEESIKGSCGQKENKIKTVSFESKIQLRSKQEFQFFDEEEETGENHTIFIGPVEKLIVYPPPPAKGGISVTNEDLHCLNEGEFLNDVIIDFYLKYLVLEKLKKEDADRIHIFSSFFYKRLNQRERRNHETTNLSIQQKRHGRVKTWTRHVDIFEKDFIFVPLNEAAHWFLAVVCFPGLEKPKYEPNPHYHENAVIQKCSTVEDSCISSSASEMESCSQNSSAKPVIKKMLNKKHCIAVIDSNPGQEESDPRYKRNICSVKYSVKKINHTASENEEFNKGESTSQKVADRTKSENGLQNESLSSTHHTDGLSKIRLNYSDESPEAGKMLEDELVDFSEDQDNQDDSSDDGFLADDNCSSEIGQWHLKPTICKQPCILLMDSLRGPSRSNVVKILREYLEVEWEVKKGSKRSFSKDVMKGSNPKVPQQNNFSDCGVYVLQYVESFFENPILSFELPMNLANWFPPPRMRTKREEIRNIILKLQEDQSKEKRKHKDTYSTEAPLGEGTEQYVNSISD

[2] = target: Serine/threonine-protein phosphatase PP1-alpha catalytic subunit (Homo sapiens, UniProt P62136); assay: inhibition of protein phosphatase 1 activity – biochemical, fluorescence, dose response (AID 2394)
[3] = THP-1 cell cytotoxicity, dose response, cytotoxicity control for non-replicating M. tuberculosis project (AID 489025); type: functional
[4] = reduction of Shn3 3'UTR-driven luciferase in osteoblasts – cell-based, Clone20 osteoblasts, firefly luciferase, cherry-picked, dose response (AID 624132); type: functional;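 also: firefly luciferase luminescence from reporter carrying the Shn3 3'UTR in osteoblasts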
[5] = loss of viability in HepG2 cells – cell-based, CellTiter-Glo, cherry-picked, cytotoxicity control for Shn3 inhibitor project, dose response (AID 624134); type: functional
Hexokinase HKDC1 = target: T2, Hexokinase HKDC1 (Homo sapiens, UniProt Q2TB90); assay: inhibition of HKDC1 glucose phosphorylation – biochemical, W721R variant, dose response (AID 504729); type: functional
T2 sequence (Q2TB90 whole entry): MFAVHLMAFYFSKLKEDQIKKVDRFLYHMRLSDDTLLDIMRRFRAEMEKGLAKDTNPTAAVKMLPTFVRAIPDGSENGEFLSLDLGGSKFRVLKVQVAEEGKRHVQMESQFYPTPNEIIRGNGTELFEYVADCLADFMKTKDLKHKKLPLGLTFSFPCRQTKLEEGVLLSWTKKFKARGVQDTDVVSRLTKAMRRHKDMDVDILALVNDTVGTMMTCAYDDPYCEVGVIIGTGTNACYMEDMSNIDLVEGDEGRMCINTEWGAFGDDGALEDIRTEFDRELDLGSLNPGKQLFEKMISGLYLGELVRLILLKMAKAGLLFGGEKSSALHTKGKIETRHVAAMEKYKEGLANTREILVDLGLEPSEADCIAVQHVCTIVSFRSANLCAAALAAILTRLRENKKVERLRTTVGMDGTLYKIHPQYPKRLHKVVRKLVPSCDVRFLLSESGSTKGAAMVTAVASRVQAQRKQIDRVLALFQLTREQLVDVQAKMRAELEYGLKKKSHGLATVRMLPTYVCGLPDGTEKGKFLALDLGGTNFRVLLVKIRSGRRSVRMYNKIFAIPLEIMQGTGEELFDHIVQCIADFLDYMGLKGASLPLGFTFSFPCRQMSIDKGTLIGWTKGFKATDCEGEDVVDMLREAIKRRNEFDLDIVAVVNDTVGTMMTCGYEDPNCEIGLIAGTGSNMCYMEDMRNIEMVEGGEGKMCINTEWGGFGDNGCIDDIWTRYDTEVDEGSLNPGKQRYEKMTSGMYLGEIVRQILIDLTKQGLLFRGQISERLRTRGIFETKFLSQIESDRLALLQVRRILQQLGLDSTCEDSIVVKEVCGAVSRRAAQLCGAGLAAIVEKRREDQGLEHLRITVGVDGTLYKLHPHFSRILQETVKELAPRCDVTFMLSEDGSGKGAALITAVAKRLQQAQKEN

[6] = target: Fibroblast growth factor receptor 1 (Homo sapiens, UniProt P11362); type: functional
[7] = target: Lymphokine-activated killer T-cell-originated protein kinase (Homo sapiens, UniProt Q96KB5); type: functional;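 also: value comes from a kinase panel screen in which TOPK was one of the panel members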
[8] = target: Receptor-type tyrosine-protein kinase FLT3 (Homo sapiens, UniProt P36888); type: functional;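 also: FLT3 was tested as one member of a kinome-wide kinase panel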
[9] = target: Tyrosine-protein kinase ABL1 (Homo sapiens, UniProt P00519); type: functional
[10] = target: Mitogen-activated protein kinase 9 (Homo sapiens, UniProt P45984); type: functional;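 also: value from a kinome panel profiling assay, MAPK9 panel entry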
[11] = target: Macrophage colony-stimulating factor 1 receptor (Homo sapiens, UniProt P07333); type: functional;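 also: value comes from the Navigating the Kinome screening panel, CSF1R member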
[12] = target: MAP kinase-interacting serine/threonine-protein kinase 2 (Homo sapiens, UniProt Q9HBH9); type: functional
[13] = target: Death-associated protein kinase 3 (Homo sapiens, UniProt O43293); type: functional;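 also: measured as one member of a kinome-wide profiling panel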
Insulin receptor = Insulin receptor (Homo sapiens, UniProt P06213); type: functional;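 also: insulin receptor kinase tested as one member of a kinome-wide kinase panel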
[14] = target: MAP kinase-activated protein kinase 2 (Homo sapiens, UniProt P49137); type: functional;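 also: measured as one member of a kinome-wide kinase panel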
[15] = target: Vascular endothelial growth factor receptor 1 (Homo sapiens, UniProt P17948); type: functional;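 also: measured within a kinome-wide profiling panel, FLT1 as the panel member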
[16] = target: Testis-specific serine/threonine-protein kinase 1 (Homo sapiens, UniProt Q9BXA7); type: functional
Testis-specific serine/threonine-protein kinase 1, sequence (Q9BXA7 whole entry): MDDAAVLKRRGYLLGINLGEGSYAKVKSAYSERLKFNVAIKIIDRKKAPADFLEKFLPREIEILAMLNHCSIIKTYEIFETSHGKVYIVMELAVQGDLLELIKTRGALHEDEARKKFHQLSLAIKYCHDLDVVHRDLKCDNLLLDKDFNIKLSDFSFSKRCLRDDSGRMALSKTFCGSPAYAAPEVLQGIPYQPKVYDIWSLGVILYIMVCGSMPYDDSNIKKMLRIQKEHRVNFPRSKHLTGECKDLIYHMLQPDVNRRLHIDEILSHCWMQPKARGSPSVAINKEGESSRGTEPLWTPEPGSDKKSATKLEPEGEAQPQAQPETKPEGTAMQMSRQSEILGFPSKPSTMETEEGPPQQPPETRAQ

Macrophage colony-stimulating factor 1 receptor, sequence (P07333 whole entry): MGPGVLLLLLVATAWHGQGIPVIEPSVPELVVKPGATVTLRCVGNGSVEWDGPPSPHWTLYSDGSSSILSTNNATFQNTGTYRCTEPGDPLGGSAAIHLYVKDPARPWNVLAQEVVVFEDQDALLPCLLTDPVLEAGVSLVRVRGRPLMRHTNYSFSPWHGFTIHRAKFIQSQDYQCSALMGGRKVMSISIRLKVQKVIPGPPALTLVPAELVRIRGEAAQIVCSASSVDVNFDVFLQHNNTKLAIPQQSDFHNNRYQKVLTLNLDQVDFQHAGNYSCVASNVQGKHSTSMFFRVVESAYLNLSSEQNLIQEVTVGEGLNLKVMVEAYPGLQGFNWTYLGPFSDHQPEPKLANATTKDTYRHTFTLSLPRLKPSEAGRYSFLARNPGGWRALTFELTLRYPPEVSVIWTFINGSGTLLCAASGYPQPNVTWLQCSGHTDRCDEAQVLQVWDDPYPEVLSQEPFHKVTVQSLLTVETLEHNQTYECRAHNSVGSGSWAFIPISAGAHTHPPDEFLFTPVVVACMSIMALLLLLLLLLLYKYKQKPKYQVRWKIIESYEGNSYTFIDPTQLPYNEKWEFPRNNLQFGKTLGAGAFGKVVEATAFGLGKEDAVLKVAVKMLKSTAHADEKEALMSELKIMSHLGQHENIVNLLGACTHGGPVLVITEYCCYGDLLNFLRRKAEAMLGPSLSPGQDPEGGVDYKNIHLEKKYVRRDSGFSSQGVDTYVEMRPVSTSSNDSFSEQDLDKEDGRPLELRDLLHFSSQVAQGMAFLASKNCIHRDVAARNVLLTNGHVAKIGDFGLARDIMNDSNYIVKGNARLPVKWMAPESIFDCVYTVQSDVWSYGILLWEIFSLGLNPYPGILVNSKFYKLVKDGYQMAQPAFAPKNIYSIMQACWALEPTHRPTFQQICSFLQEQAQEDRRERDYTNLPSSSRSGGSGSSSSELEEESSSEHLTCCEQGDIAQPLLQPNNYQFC
Tyrosine-protein kinase ABL1, sequence (P00519 whole entry): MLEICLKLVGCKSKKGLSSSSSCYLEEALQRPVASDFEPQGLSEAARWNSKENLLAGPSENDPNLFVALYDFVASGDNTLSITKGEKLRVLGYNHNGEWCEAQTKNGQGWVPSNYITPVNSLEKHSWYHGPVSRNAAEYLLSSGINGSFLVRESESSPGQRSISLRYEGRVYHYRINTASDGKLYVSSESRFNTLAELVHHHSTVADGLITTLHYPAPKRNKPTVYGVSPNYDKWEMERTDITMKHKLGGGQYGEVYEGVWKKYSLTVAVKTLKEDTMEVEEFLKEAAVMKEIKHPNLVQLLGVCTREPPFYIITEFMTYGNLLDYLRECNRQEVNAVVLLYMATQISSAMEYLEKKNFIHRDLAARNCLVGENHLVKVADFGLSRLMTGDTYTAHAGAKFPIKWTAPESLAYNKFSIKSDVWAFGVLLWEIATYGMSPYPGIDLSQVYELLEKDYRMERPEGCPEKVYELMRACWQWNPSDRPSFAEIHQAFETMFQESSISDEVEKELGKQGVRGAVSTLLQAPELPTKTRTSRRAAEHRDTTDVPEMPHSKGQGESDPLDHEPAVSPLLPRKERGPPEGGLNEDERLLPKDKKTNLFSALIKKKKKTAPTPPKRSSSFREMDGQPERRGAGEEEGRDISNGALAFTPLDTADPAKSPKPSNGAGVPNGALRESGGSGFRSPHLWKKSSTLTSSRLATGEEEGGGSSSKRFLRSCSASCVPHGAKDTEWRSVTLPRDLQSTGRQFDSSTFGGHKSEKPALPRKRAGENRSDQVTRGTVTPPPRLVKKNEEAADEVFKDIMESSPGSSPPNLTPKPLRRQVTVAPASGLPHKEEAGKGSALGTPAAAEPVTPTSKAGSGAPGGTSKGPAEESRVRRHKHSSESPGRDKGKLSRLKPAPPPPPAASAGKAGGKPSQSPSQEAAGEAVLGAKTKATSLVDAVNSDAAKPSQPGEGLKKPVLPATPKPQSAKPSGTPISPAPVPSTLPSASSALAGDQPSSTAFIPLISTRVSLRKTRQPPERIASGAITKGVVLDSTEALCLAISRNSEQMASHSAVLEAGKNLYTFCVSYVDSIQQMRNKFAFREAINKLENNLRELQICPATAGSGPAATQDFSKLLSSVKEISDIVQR
Mitogen-activated protein kinase 9, sequence (P45984 whole entry): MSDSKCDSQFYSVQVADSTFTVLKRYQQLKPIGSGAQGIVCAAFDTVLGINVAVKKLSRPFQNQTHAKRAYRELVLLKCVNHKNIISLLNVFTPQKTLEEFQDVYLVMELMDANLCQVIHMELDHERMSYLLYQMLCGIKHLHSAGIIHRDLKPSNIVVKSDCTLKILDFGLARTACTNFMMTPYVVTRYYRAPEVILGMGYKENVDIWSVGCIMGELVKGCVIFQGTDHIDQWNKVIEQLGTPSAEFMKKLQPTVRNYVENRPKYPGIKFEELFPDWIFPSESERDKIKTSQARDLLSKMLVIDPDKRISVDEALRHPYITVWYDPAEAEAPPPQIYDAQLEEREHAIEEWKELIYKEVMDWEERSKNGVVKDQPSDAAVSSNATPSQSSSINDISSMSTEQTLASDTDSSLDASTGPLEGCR
MAP kinase-activated protein kinase 2, sequence (P49137 whole entry): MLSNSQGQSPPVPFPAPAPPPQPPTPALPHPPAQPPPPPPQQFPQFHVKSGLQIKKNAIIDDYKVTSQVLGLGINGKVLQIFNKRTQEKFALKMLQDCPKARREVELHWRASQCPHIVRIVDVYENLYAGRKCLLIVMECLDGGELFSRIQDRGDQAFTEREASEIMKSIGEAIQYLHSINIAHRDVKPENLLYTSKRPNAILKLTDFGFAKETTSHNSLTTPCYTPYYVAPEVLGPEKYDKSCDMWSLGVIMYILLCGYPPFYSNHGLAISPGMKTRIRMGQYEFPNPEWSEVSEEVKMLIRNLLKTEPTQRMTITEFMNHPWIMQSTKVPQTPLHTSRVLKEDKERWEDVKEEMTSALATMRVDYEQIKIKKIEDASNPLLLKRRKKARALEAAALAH
Vascular endothelial growth factor receptor 1, sequence (P17948 whole entry): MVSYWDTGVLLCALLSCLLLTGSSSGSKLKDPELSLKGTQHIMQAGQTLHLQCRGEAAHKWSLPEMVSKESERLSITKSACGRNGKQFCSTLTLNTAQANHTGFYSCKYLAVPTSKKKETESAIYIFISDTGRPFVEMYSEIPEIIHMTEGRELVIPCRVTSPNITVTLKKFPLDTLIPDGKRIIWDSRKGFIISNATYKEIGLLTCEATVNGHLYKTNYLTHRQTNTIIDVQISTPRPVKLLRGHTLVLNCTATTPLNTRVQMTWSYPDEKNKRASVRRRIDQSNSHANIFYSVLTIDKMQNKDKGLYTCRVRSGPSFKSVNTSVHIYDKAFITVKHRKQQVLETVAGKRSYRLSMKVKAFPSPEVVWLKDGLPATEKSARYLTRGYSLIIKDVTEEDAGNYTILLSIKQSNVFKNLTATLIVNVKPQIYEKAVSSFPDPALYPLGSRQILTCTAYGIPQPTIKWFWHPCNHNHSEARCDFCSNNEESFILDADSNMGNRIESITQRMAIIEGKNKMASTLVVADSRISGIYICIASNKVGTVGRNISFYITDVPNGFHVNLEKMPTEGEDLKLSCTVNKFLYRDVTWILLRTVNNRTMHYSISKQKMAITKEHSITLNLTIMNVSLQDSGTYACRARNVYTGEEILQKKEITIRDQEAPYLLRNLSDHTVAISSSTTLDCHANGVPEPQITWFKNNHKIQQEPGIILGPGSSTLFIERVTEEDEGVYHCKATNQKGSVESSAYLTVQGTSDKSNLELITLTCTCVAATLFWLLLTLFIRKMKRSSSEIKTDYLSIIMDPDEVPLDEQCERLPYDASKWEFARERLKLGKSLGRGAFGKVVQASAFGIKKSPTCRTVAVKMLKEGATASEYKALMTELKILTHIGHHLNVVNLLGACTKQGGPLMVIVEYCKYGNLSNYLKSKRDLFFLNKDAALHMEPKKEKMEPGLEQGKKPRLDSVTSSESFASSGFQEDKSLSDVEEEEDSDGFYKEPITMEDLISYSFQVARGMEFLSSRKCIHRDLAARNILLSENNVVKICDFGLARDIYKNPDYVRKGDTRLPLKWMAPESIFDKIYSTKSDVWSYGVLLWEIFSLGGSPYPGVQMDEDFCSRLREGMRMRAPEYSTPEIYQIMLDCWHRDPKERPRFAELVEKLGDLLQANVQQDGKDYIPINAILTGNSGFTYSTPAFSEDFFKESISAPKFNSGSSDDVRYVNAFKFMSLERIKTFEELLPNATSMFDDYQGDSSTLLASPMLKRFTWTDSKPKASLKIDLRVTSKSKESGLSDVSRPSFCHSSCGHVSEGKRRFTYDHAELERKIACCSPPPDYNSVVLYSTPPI
Serine/threonine-protein phosphatase PP1-alpha catalytic subunit, sequence (P62136 whole entry): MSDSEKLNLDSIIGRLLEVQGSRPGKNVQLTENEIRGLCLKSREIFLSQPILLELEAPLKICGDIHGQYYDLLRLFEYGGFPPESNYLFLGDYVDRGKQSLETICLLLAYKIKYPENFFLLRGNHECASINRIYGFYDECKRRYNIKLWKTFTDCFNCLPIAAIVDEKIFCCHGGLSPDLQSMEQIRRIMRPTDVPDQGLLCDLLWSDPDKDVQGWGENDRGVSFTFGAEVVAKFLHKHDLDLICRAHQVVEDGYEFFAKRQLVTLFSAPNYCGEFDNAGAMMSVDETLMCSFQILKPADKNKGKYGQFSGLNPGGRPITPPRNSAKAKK

Compound: Cc1ccc(C(=O)NC2(O)C(=O)c3ccccc3C2=O)cc1C
- IC50 [1]: 3.48 µM (active)
- IC50 [2]: > 67 µM (not active)

Compound: O=[N+]([O-])c1c(Nc2ccccn2)cc(Cl)c2nonc12
- CC50 [3]: 20.3 µM (active)

Compound: CC[C@@H](C)[C@H](CNC)NC[C@@H](Cc1cccc2ccccc12)NCCc1cccc(C(F)(F)F)c1
- AC50 [4]: 8.08 µM (active)
- AC50 [5]: 9.13 µM (active)

Compound: Cc1ccc(S(=O)(=O)/N=C2\C=C(Nc3cccc(C(=O)O)c3)C(=O)c3ccccc32)cc1
- IC50 (Hexokinase HKDC1): 4.31 µM (active)

Compound: CC(C)(CO)CNc1nccc(-c2c(-c3ccc(F)cc3)nc3c(CC4CC4)nccn23)n1
- Ki [6]: > 5.01 µM (inactive)
- Ki [7]: 0.316 µM (active)
- Ki [8]: > 2.51 µM (inactive)
- Ki [9]: > 0.631 µM (inactive)
- Ki [10]: 0.0316 µM (active)
- Ki [11]: > 2.51 µM (inactive)
- Ki [12]: > 10 µM (inactive)
- Ki [13]: > 1.26 µM (inactive)
- Ki (Insulin receptor): > 5.01 µM (inactive)
- Ki [14]: > 7.94 µM (inactive)
- Ki [15]: > 0.398 µM (inactive)
- Ki [16]: > 1.58 µM (inactive)
